Data as given in PubChem BioAssay AID226 (DTP/NCI, 2004).
Values joined by “and” are separate entries in the source; they are usually repeats but may differ in a detail not shown here. Identical values can stand only once. Toxic doses and inconclusive results are not listed.

Tested on: B6C3F1 mice, intracerebral ependymoblastoma, median survival T/C
Assay: NCI In Vivo Anticancer Drug Screen. Data for tumor model Ependymoblastoma (intracerebral) in B6C3F1 mice
Conditions: endpoint: median survival time, higher = longer survival
Experimental: The antitumor activity of compounds was measured in mice bearing transplantable tumors. Survival or tumor size were measured and the results are expressed as the measurement made in the treated group (T) divided by the measurement made in the vehicle treated control group (C). The tumor model used in this assay is Ependymoblastoma (intracerebral) in B6C3F1 mice

[1] = dose: 8.0 mg/kg/injection, schedule: Q01DX005 (ip), vehicle: saline
[2] = dose: 8.0 mg/kg/injection, schedule: Q01DX005 (ip), vehicle: Klucel (hydroxypropylcellulose) (HPC)
[3] = dose: 8.0 mg/kg/injection, schedule: Q01DX005 (ip), vehicle: saline with Tween-80
[4] = dose: 16.0 mg/kg/injection, schedule: Q01DX005 (ip), vehicle: Klucel (hydroxypropylcellulose) (HPC)
[5] = dose: 16.0 mg/kg/injection, schedule: Q01DX005 (ip), vehicle: saline with Tween-80
[6] = dose: 32.0 mg/kg/injection, schedule: Q01DX005 (ip), vehicle: Klucel (hydroxypropylcellulose) (HPC)
[7] = dose: 32.0 mg/kg/injection, schedule: Q01DX005 (ip), vehicle: saline with Tween-80
[8] = dose: 64.0 mg/kg/injection, schedule: Q01DX005 (ip), vehicle: saline with Tween-80
[9] = dose: 128.0 mg/kg/injection, schedule: Q01DX005 (ip), vehicle: saline with Tween-80

With COC1OC(CO)C(O)C(NC(=O)N(C)N=O)C1O (stereo not given) the T/C (dose: 0.5 mg/kg/injection, schedule: Q01DX005 (ip), vehicle: saline) was 101 % of control, the T/C (dose: 1.0 mg/kg/injection, schedule: Q01DX005 (ip), vehicle: saline + alcohol) was 100 % of control and the T/C (dose: 1.0 mg/kg/injection, schedule: Q01DX005 (ip), vehicle: saline) was 103 % of control. For the same compound, the T/C (dose: 1.0 mg/kg/injection, schedule: Q## X004 (ip), vehicle: saline + alcohol) was 113 % of control, the T/C (dose: 1.0 mg/kg/injection, schedule: Q## X006 (ip), vehicle: saline + alcohol) was 116 % of control and the T/C (dose: 2.0 mg/kg/injection, schedule: Q01DX005 (ip), vehicle: saline + alcohol) was 109 % of control. For the same compound, the T/C (dose: 2.0 mg/kg/injection, schedule: Q01DX005 (ip), vehicle: saline) was 119 % of control, the T/C (dose: 2.0 mg/kg/injection, schedule: Q## X004 (ip), vehicle: saline + alcohol) was 115 % of control and the T/C (dose: 2.0 mg/kg/injection, schedule: Q#A X002 (ip), vehicle: saline + alcohol) was 107 % of control. The T/C (dose: 4.0 mg/kg/injection, schedule: Q01DX001 (ip), vehicle: saline + alcohol) was 94 % of control and 100 % of control and 110 % of control, the T/C (dose: 4.0 mg/kg/injection, schedule: Q01DX005 (ip), vehicle: saline + alcohol) was 107 % of control and the T/C (dose: 4.0 mg/kg/injection, schedule: Q01DX005 (ip), vehicle: saline) was 108 % of control. The T/C (dose: 4.0 mg/kg/injection, schedule: Q01DX005 (oral), vehicle: saline + alcohol) was 115 % of control, the T/C (dose: 4.0 mg/kg/injection, schedule: Q## X004 (ip), vehicle: saline + alcohol) was 118 % of control and the T/C (dose: 4.0 mg/kg/injection, schedule: Q## X006 (ip), vehicle: saline + alcohol) was 113 % of control. The T/C (dose: 4.0 mg/kg/injection, schedule: Q#A X002 (ip), vehicle: saline + alcohol) was 97 % of control, the T/C (dose: 8.0 mg/kg/injection, schedule: Q01DX001 (ip), vehicle: saline + alcohol) was 97 % of control and 106 % of control and 113 % of control and the T/C [1] was 103 % of control. For the same compound, the T/C (dose: 8.0 mg/kg/injection, schedule: Q01DX005 (oral), vehicle: saline + alcohol) was 113 % of control, the T/C (dose: 8.0 mg/kg/injection, schedule: Q## X004 (ip), vehicle: saline + alcohol) was 119 % of control and the T/C (dose: 8.0 mg/kg/injection, schedule: Q## X006 (ip), vehicle: saline + alcohol) was 118 % of control. For the same compound, the T/C (dose: 8.0 mg/kg/injection, schedule: Q#A X002 (ip), vehicle: saline + alcohol) was 95 % of control, the T/C (dose: 16.0 mg/kg/injection, schedule: Q01DX001 (ip), vehicle: saline + alcohol) was 91 % of control and 112 % of control and 117 % of control and the T/C (dose: 16.0 mg/kg/injection, schedule: Q01DX001 (oral), vehicle: saline + alcohol) was 95 % of control and 108 % of control and 113 % of control. The T/C (dose: 16.0 mg/kg/injection, schedule: Q01DX005 (ip), vehicle: saline + alcohol) was 121 % of control, the T/C (dose: 16.0 mg/kg/injection, schedule: Q01DX005 (oral), vehicle: saline + alcohol) was 101 % of control and the T/C (dose: 16.0 mg/kg/injection, schedule: Q#A X002 (ip), vehicle: saline + alcohol) was 109 % of control. For the same compound, the T/C (dose: 32.0 mg/kg/injection, schedule: Q01DX001 (ip), vehicle: saline + alcohol) was 100 % of control and 103 % of control and 108 % of control, the T/C (dose: 32.0 mg/kg/injection, schedule: Q01DX001 (oral), vehicle: saline + alcohol) was 91 % of control and 95 % of control and 117 % of control and the T/C (dose: 32.0 mg/kg/injection, schedule: Q01DX005 (oral), vehicle: saline + alcohol) was 101 % of control. The T/C (dose: 32.0 mg/kg/injection, schedule: Q#A X002 (ip), vehicle: saline + alcohol) was 100 % of control, the T/C (dose: 64.0 mg/kg/injection, schedule: Q01DX001 (ip), vehicle: saline + alcohol) was 103 % of control (2×) and 119 % of control and the T/C (dose: 64.0 mg/kg/injection, schedule: Q01DX001 (oral), vehicle: saline + alcohol) was 106 % of control and 107 % of control and 109 % of control. For the same compound, the T/C (dose: 128.0 mg/kg/injection, schedule: Q01DX001 (oral), vehicle: saline + alcohol) was 107 % of control and 112 % of control and 123 % of control and the T/C (dose: 256.0 mg/kg/injection, schedule: Q01DX001 (oral), vehicle: saline + alcohol) was 107 % of control and 119 % of control.
In the case of C[C@]12C=CC(=O)C=C1CC[C@@H]1[C@@H]2CC[C@]2(C)OC(=O)CC[C@@H]12, the T/C [2] was 98 % of control and 100 % of control, the T/C [3] was 100 % of control and 113 % of control and the T/C [4] was 101 % of control and 106 % of control. The T/C [5] was 97 % of control and 110 % of control, the T/C [6] was 94 % of control and 95 % of control and the T/C [7] was 97 % of control and 105 % of control. For the same compound, the T/C (dose: 64.0 mg/kg/injection, schedule: Q01DX005 (ip), vehicle: Klucel (hydroxypropylcellulose) (HPC)) was 98 % of control and 101 % of control, the T/C [8] was 97 % of control and 105 % of control and the T/C (dose: 128.0 mg/kg/injection, schedule: Q01DX005 (ip), vehicle: Klucel (hydroxypropylcellulose) (HPC)) was 96 % of control and 86 % of control. The T/C [9] was 96 % of control and 108 % of control, the T/C (dose: 256.0 mg/kg/injection, schedule: Q01DX005 (ip), vehicle: Klucel (hydroxypropylcellulose) (HPC)) was 90 % of control and the T/C (dose: 256.0 mg/kg/injection, schedule: Q01DX005 (ip), vehicle: saline with Tween-80) was 105 % of control.
In the case of COc1cccc2c1C(=O)c1c(O)c3c(c(O)c1C2=O)C[C@@](O)(C(C)=O)C[C@@H]3OC1CC(N)C(O)C(C)O1 (stereo not given in full), the T/C (dose: 0.12 mg/kg/injection, schedule: Q01DX005 (ip), vehicle: water) was 105 % of control, the T/C (dose: 0.25 mg/kg/injection, schedule: Q01DX005 (ip), vehicle: water) was 102 % of control and the T/C (dose: 0.5 mg/kg/injection, schedule: Q01DX005 (ip), vehicle: water) was 93 % of control and 105 % of control. The T/C (dose: 1.0 mg/kg/injection, schedule: Q01DX005 (ip), vehicle: water) was 92 % of control and 93 % of control and the T/C (dose: 2.0 mg/kg/injection, schedule: Q01DX005 (ip), vehicle: water) was 104 % of control.
With C[CH2][Ge]1([CH2]C)[CH2]CC2(CCN(CCCN(C)C)C2)C[CH2]1 the T/C [1] was 94 % of control and 103 % of control and the T/C (dose: 16.0 mg/kg/injection, schedule: Q01DX005 (ip), vehicle: saline) was 96 % of control and 104 % of control and 107 % of control.
With [N-]=[N+]=CC(=O)CCC(N)C(=O)O (stereo not given) the T/C (dose: 0.05 mg/kg/injection, schedule: Q01DX005 (ip), vehicle: saline) was 111 % of control, the T/C (dose: 0.06 mg/kg/injection, schedule: Q01DX005 (ip), vehicle: saline) was 93 % of control and 117 % of control and the T/C (dose: 0.1 mg/kg/injection, schedule: Q01DX005 (ip), vehicle: saline) was 97 % of control. The T/C (dose: 0.12 mg/kg/injection, schedule: Q01DX005 (ip), vehicle: saline) was 111 % of control and 114 % of control and the T/C (dose: 0.2 mg/kg/injection, schedule: Q01DX005 (ip), vehicle: saline) was 122 % of control.
For Cc1[nH]c(=O)[nH]c(=O)c1N(CCF)CCCl, the T/C (dose: 2.0 mg/kg/injection, schedule: Q01DX005 (ip), vehicle: Klucel (hydroxypropylcellulose) (HPC)) was 90 % of control, the T/C (dose: 2.0 mg/kg/injection, schedule: Q01DX005 (ip), vehicle: saline with Tween-80) was 98 % of control and 100 % of control and the T/C (dose: 4.0 mg/kg/injection, schedule: Q01DX005 (ip), vehicle: Klucel (hydroxypropylcellulose) (HPC)) was 93 % of control and 108 % of control. The T/C (dose: 4.0 mg/kg/injection, schedule: Q01DX005 (ip), vehicle: saline with Tween-80) was 102 % of control and 105 % of control, the T/C [2] was 97 % of control and 114 % of control and the T/C [3] was 96 % of control and 100 % of control. For the same compound, the T/C [4] was 107 % of control and 89 % of control, the T/C [5] was 106 % of control and 107 % of control and the T/C [6] was 94 % of control and 123 % of control. For the same compound, the T/C [7] was 100 % of control.
CCC(C)N(C)/N=N/c1nc[nH]c1C(N)=O (stereo not given) was tested, and the T/C [7] was 151 % of control, the T/C [8] was 153 % of control and the T/C [9] was 153 % of control.
In the case of COc1ccc(C(=O)/C(Br)=C/C(=O)O)cc1, the T/C (dose: 10.0 mg/kg/injection, schedule: Q01DX005 (ip), vehicle: saline) was 92 % of control and 104 % of control, the T/C (dose: 20.0 mg/kg/injection, schedule: Q01DX005 (ip), vehicle: saline) was 96 % of control and 103 % of control and the T/C (dose: 40.0 mg/kg/injection, schedule: Q01DX005 (ip), vehicle: saline) was 94 % of control and 104 % of control.
